Patent US20020091086A1, “Peptides that block viral infectivity and methods of use thereof” (priority 1999, published 2002)
“And” between values parts separate entries of the source, which are not always exact repeats. Equal entries are not always repeated. Peptide text beside a SMILES is read from it.

Tests used:
[1] = biological target: T1, recombinant p24 (Human immunodeficiency virus type 1 group M subtype B, UniProt P04591); test: dialysis-based binding assay with 14C-GPG-NH2, p24; design: species or system HIV-1
T1 construct: purchased AIDS program, NCIB (gift, not bought)
Description: A dialysis-based binding assay was conducted using a dialysis membrane with a pore size of less than 10 kD. (Slide-A-Lyzer, Pierce). Fifty microliters of a 10 μM stock of the recombinant proteins p24 and gp120 (gifts from the AIDS program, NCIB) and BSA (Sigma) were introduced into separate dialysis membranes and the proteins were dialyzed at 4° C. for 2 days against a 500 ml solution composed of 150 mM NaCl and 50 mM Tris-HCl, pH 7.4 buffer and 27.5 μM of ^14C-GPG-NH2 (Amersham Ltd. UK). Subsequently, ten or five microliter aliquots of the dialyzed p24, gp120, and BSA were removed and mixed with 3 ml of ReadySafe (Beckman) in a scintillation vial. The C^14 was then detected by scintillation counting.

[2] = tested on: HUT78; test: cytotoxicity, trypan-blue dye exclusion and cell counting; settings: 40 mM, 3 days of culture
Description: (§1) The in vitro 50% cytotoxic concentrations (CC50) of various cell lines was also assessed. Accordingly, different concentrations of GPG-NH2, up to 40 mM, was supplemented into the medium culture of T-cell lines HUT78, H9, CEM-SS, MT-2 and (non) induced ACH-2, as well as, the macrophage derived cell lines […], THP-1 and (non) induced U-1 cells. After 3 days of incubation, the number of cells were counted.

[3] = tested on: Jurkat-tat III; test: as above; settings: 40 mM, 3 days of culture
Description: as §1

[4] = tested on: MT-2; test: as above; settings: 40 mM, 3 days of culture
Description: as §1

[5] = radioactivity associated with rat plasma proteins, SDS/PAGE; format: in vivo, rats; settings: 60 minutes after feeding
Description: The proteins from whole plasma were also analyzed by column chromatography and fractionated and crude protein were separated by sodium dodecyl sulfate polyacrylamide gel (10%) electrophoresis (SDS/PAGE). Rat plasma samples were partially purified with size exclusion ([…], Phamacia) chromatography (0.4×6 cm), in a buffer of 10 mM Tris-HCl pH 8.3 and 50 mM KCl. Eluate was then separated by anionic exchange chromatography by using an increasing stepwise gradient of NaCl in a buffer of 10 mM Tris-HCl pH8.3 (Sepharose CL-6B DEAE, 0.4×6 cm). The eluate was monitored and pooled according to the radioactivity (Ready Safe, Beckman; LKB 1218, Sweden). The protein fractions with strong signal were separated on a 10% SDS-PAGE and were subsequently blotted onto PVDF (polyvinylidene difluoride, BioRad) membrane before being subjected to Edman N-terminal amino acid sequencing (Applied Biosystems Procise Sequencer, USA).
The proteins marked B1-B4 were sequenced and determined to be alpha-1 antitrypsin (Bi), pentaxin (B-2), C-reactive protein (B-3), and B-4 could not be identified. These proteins are all synthesized in the liver. One interpretation is that hydrolyzed GPG-NH2 was reutilized in the liver protein synthesis. […]

[6] = tested on: SF162 strain of HIV-1; test: antiviral activity of plasma of rats fed GPG-NH2 on infected PBMC, p24; format: cell-based; settings: rat plasma diluted 1/5
Description: For the assessment of biologically active GPG-NH2 in the plasma of animals fed the small peptide, plasma samples were prepared from blood obtained from the rats of the four week toxicology study the day after the last feeding. The plasma samples were diluted ⅕ in RPMI medium and were adminstered to PBMC infected with the SF162 strain of HIV-1, as described above. Viral infectivity was then monitored at seven, eleven, and fourteen days post infection by detecting the amount of p24 in the supernatent using a commercially available detection assay. (Abbott). […] In some cases, the administration of as little as 10 μM GPG-NH2 provided a sufficient concentration of small peptide in the plasma to enable the inhibition of HIV-1 replication. The percent reduction was calculated as in Table 6. The results from these experiments established that small peptides described herein can be maintained at concentrations in the body of an animal that are effective at inhibiting HIV replication.

[7] = tested on: CEM-SS; test: cytotoxicity, cell counting; settings: 40 mM, 3 days
Description: as §1

[8] = tested on: THP-1; test: cytotoxicity, cell counting; settings: 40 mM, 3 days
Description: as §1

[9] = tested on: H9; test: cytotoxicity, cell counting; settings: 40 mM, 3 days
Description: as §1

[10] = Exp. 1, day 7, Feeding GPG 10 (mg/ml)
[11] = Exp. 1, day 7, Feeding GPG 30 (mg/ml)
[12] = Exp. 1, day 7, Feeding GPG 100 (mg/ml)
[13] = Exp. 1, day 14, Feeding GPG 10 (mg/ml)
[14] = Exp. 1, day 14, Feeding GPG 30 (mg/ml)
[15] = Exp. 1, day 14, Feeding GPG 100 (mg/ml)
[16] = Exp. 2, day 7, Feeding GPG 10 (mg/ml)
[17] = Exp. 2, day 7, Feeding GPG 30 (mg/ml)
[18] = Exp. 2, day 7, Feeding GPG 100 (mg/ml)
[19] = Exp. 2, day 14, Feeding GPG 10 (mg/ml)
[20] = Exp. 2, day 14, Feeding GPG 30 (mg/ml)
[21] = Exp. 2, day 14, Feeding GPG 100 (mg/ml)
[22] = Exp. 3, day 14, Feeding GPG 10 (mg/ml)
[23] = Exp. 3, day 14, Feeding GPG 30 (mg/ml)
[24] = Exp. 3, day 14, Feeding GPG 100 (mg/ml)
[25] = Exp. 3, day (number not given), Feeding GPG 10 (mg/ml)
[26] = Exp. 3, day (number not given), Feeding GPG 30 (mg/ml)
[27] = Exp. 3, day (number not given), Feeding GPG 100 (mg/ml)
[28] = Exp. 4, day 11, Feeding GPG 10 (mg/ml)
[29] = Exp. 4, day 11, Feeding GPG 30 (mg/ml)
[30] = Exp. 4, day 11, Feeding GPG 100 (mg/ml)
[31] = Exp. 5, day 7, Feeding GPG 10 (mg/ml)
[32] = Exp. 5, day 7, Feeding GPG 30 (mg/ml)
[33] = Exp. 5, day 7, Feeding GPG 100 (mg/ml)

## NCC(=O)N1CCC[C@H]1C(=O)NCC(N)=O [GPG-NH2, glycyl-prolyl-glycine amide] (H-Gly-Pro-Gly-NH2)
[1]; dialysis 2 days at 4° C. against 27.5 μM 14C-GPG-NH2, buffer 1.816
  radioactive GPG-NH2 associated with p24: 13.712 μCi/ml
[1]; dialysis against 27.5 μM 14C-GPG-NH2
  times buffer, p24: 7.5 times buffer and 7.551 times buffer
[2]
  inhibition of cell growth: ~40%
[3]
  inhibition of cell growth: ~40%
[4]
  inhibition of cell growth: ~40%
[5]
  radioactivity covalently associated with plasma proteins: little radioactivity was observed to be covalently associated with proteins
[6]; [10]
  % reduction: 82.8%
  p24: 93.3 pg/mL
[6]; [11]
  % reduction: 95.6%
  p24: 24.0 pg/mL
[6]; [12]
  % reduction: 67.8%
  p24: 174.7 pg/mL
[6]; [13]
  % reduction: 92.8%
  p24: 1636 pg/mL
[6]; [14]
  % reduction: 95.9%
  p24: 938 pg/mL
[6]; [15]
  % reduction: 59.4%
  p24: 9211 pg/mL
[6]; [16]
  % reduction: 31.9%
  p24: 219.2 pg/mL
[6]; [17]
  % reduction: 39.6%
  p24: 194.3 pg/mL
[6]; [18]
  % reduction: 46.1%
  p24: 173.5 pg/mL
[6]; [19]
  % reduction: 0%
  p24: 4760.8 pg/mL
[6]; [20]
  % reduction: 12.3%
  p24: 3574.4 pg/mL
[6]; [21]
  % reduction: 45.9%
  p24: 2203.7 pg/mL
[6]; [22]
  % reduction: 11.6%
  p24: 6700.6 pg/mL
[6]; [23]
  % reduction: 9.1%
  p24: 6893.0 pg/mL
[6]; [24]
  % reduction: 0%
  p24: 7578.4 pg/mL
[6]; [25]
  % reduction: 0%
  p24: 255.6 pg/mL
[6]; [26]
  % reduction: 41.7%
  p24: 107.3 pg/mL
[6]; [27]
  % reduction: 47.3%
  p24: 96.9 pg/mL
[6]; [28]
  % reduction: 29.8%
  p24: 170 pg/mL
[6]; [29]
  % reduction: 0%
  p24: 487.4 pg/mL
[6]; [30]
  % reduction: 78.6%
  p24: 51.7 pg/mL
[6]; [31]
  % reduction: 73.9%
  p24: 79.6 pg/mL
[6]; [32]
  % reduction: 0%
  p24: 439.3 pg/mL
[6]; [33]
  % reduction: 80.3%
  p24: 60 pg/mL
[7]
  decrease in cell number: less than 20%
[8]
  decrease in cell number: less than 20%
[9]
  decrease in cell number: less than 20%
